Data from patent US20240226001A1, “Contact Lenses And Other Eye-Contacting Matrices Carrying Mitochondrially-Targeted Antioxidants” (Mitotech S.A., priority 2015, published 2024).
“And” between values parts separate entries of the source, which are not always exact repeats. Equal entries are not always repeated. Where two headings read alike, the source gives them in different places.

How the values were obtained:
rabbit cornea [1] = experiment: SkQ1 concentration in rabbit cornea after SkQ1-supplemented contact lens (Example 3); type: in vivo; conditions: for SkQ1 nM in cornea / SkQ1 ng per g of cornea / SkQ1 concentration in the cornea (extract): single samples
Experimental: (§1) The experiment was performed as follows: contact lenses were supplemented with SkQ1 as described in Example 2, then some lenses were placed on rabbit eyes and some lenses left aside in saline solution. At certain time points (see below in the table 3) contact lenses were removed from rabbits' eyes (experimental lenses) or saline solution (control lenses) and such rabbits were euthanized and their cornea were taken for SkQ1 content analysis. Then SkQ1 was extracted from the collected lenses and cornea samples using 50% acetonitrile solution and the SkQ1 amount in the extracts was determined using LCMS/MS.

[2] = as above; type: in vivo; conditions: rabbit; for concentration at 30 min / concentration at 1 h / concentration at 2 h: topical; for concentration at 30 min: 30 min after lens placement; for concentration at 1 h: 1 hour after lens placement; for concentration at 2 h: 2 hours after lens placement
Experimental: as §1

[3] = Adsorption of MTCs on a matrix from PBS versus 50% ethanol, HPLC (Example 4); type: physicochemical; conditions: 250 nM solution in dark glass vials; adsorption in 50% ethanol negligible
Experimental: It must be noted that SkQ3 differs from SkQ1 by the antioxidant moiety (A moiety in the formula I—see above), while SkB1 differs from SkQ1 by both the linker (L moiety) and targeting moiety (B moiety). So in this experiment, variations in all 3 parts of MTC molecule were successfully used.
The experiment was conducted as follows: 990 μl of phosphate buffered saline (PBS) or 50% water-ethanol solution (SkQ adsorption in 50% ethanol is negligible) was placed in dark glass chromatography vials (Waters, p/n 186000847c). 10 ul of 25 μM SkQ solution in ethanol was then added to each vial, yielding a 250 nM solution. The vials were vigorously mixed and the SkQ concentration in each vial (100 μl samples) was analyzed by HPLC using a Luna C 18 (2), Phenomenex, 250 MM '4.6 mm column with a sorbent particle size of 5 μm. The liquid phase used was acetonitrile:water (56:44), and the flow speed was 1 ml/min. at 25° C. UV detection was performed at A260.

[4] = Adsorption of SkQ1 from saline on soft disposable contact lens, retention in saline, extraction with 50% acetonitrile (Example 2); type: physicochemical
Experimental: Lens pre-wash: soft disposable contact lenses were thoroughly rinsed with saline solution (0.9% NaCl) and incubated in this solution overnight. Preparation of 2.5 μM SkQ1 solution: 4 mL of saline solution was placed in dark glass vials. 40 μL of 500 μM SkQ1 solution in 50% ethanol was added into each vial yielding 2.5 μM SkQ1 solution. Solution in the vial was thoroughly mixed and then incubated overnight to yield A1 series solution. Then aliquots of A1 series were collected from these vials.
During the experiment a pre-washed contact lens was placed into a glass vial with 2.5 uM SkQ1 solution and incubated at +4° C.-+8 °C for 4 days. Then the contact lenses were removed from the 2.5 μM SkQ1 solution, rinsed with saline solution and placed into fresh saline solution and incubated overnight at +4° C.-+8° C. to yield A2 series solution. Aliquots of the A2 series solution were collected from the vials where lenses were incubated in 2.5 μM SkQ1 solution.
After the above described overnight lens incubation in saline solution, lenses were placed in vials containing 500 μL of 50% acetonitrile and mixed during 1 hour at +25° C. Then aliquots of this acetonitrile solution was collected (A3 series).
The content of SkQ1 in the collected aliquots was analyzed using LCMS/MS.

rabbit cornea [5] = experiment: SkQ1 concentration in rabbit cornea after instillation of eye drops (control experiment); type: in vivo; conditions: eye drops containing 1.55 μg/mL of SkQ1, FIG. 2B
Experimental: Thus SkQ1 was efficiently transferred from the experimental lens into the eye. In the control experiment, SkQ1 was administered into the rabbit eye by instillation of eye drops containing 1.55 μg/mL of SkQ1. At certain time points, samples of rabbit cornea were taken and analyzed for SkQ1 content using LCMS/MS. […] Thus, the mode of accumulation of SkQ1 in the cornea is different when SkQ1 is administered via contact lenses (compare graphs on FIG. 2A and FIG. 2B).

rabbit eyes = experiment: SkQ1 content of experimental lenses taken from rabbits eyes (Example 3); type: in vivo; conditions: for SkQ1 conc. in experimental lenses: 50% acetonitrile extract; for SkQ1 conc. in experimental lenses / SkQ1 amount in experimental lenses: single samples; for Average SkQ1 amount in experimental lenses: average of 2 samples
Experimental: as §1

[6] = SkQ1 content of control lenses (intact lenses kept in saline solution) (Example 3); type: physicochemical; conditions: for SkQ1 conc. in control lenses: 50% acetonitrile extract
Experimental: as §1

[7] = cornea (50% acetonitrile extract), single samples, read-out: SkQ1 concentration in the cornea (extract)
[8] = cornea, average of 2 samples, read-out: SkQ1 Aver. nM in cornea
[9] = cornea, single samples, read-out: SkQ1 nM in cornea
[10] = cornea, single samples, read-out: SkQ1 ng per g of cornea
[11] = A1 series: 2.5 μM SkQ1 saline solution before lens
[12] = A2 series: saline solution after lens incubation
[13] = A3 series: 50% acetonitrile extract of lens, 1 hour at +25° C.

CC1=C(C)C(=O)C(CCCCCCCCCC[P+](c2ccccc2)(c2ccccc2)c2ccccc2)=CC1=O [SkQ1]
SkQ1 nM in cornea (rabbit cornea [1]; 30 min after lens placement): 4.96 nM | SkQ1 ng per g of cornea (rabbit cornea [1]; 30 min after lens placement): 3.06 ng per g of cornea | SkQ1 concentration in the cornea (extract) (rabbit cornea [1]; 30 min after lens placement): 0.51 ng/mL | SkQ1 nM in cornea (rabbit cornea [1]; 1 hour after lens placement): 14.30 nM | SkQ1 ng per g of cornea (rabbit cornea [1]; 1 hour after lens placement): 8.82 ng per g of cornea | SkQ1 concentration in the cornea (extract) (rabbit cornea [1]; 1 hour after lens placement): 1.47 ng/mL | SkQ1 nM in cornea (rabbit cornea [1]; 2 hours after lens placement): 13.32 nM | SkQ1 ng per g of cornea (rabbit cornea [1]; 2 hours after lens placement): 8.22 ng per g of cornea | SkQ1 concentration in the cornea (extract) (rabbit cornea [1]; 2 hours after lens placement): 1.37 ng/mL | Concentration of SkQ1 in the rabbits' eye cornea over time (rabbit cornea [1]; administered via contact lens, FIG. 2A): gradually increased | concentration at 30 min [2, 7]: 0.64 ng/mL | concentration at 1 h [2, 7]: 1.56 ng/mL | concentration at 2 h [2, 7]: 1.46 ng/mL | concentration at 6 h ([2]; cornea, other: SkQ1-supplemented contact lens placed on the eye, 6 hours after lens placement, average of 2 samples, read-out: SkQ1 Aver. nM in cornea): 17.8 nM | concentration at 30 min [2, 8]: 5.59 nM | concentration at 30 min [2, 9]: 6.22 nM | concentration at 30 min [2, 10]: 3.84 ng/g | concentration at 1 h [2, 8]: 14.7 nM | concentration at 1 h [2, 9]: 15.2 nM | concentration at 1 h [2, 10]: 9.36 ng/g | concentration at 2 h [2, 8]: 13.8 nM | concentration at 2 h [2, 9]: 14.2 nM | concentration at 2 h [2, 10]: 8.76 ng/g | Concentration in PBS as % of the concentration in 50% ethanol [3]: 51.7% | Calculated total SkQ1 amount in the vial, M ± SE (n = 9) [4, 11]: 3.69 µg and 3.69 ± 0.11 µg | SkQ1 concentration found, M ± SE (n = 9) [4, 11]: 0.97 ± 0.03 µg/mL | Calculated total SkQ1 amount in the vial, M ± SE (n = 9) [4, 12]: 0.19 µg and 0.19 ± 0.07 µg | SkQ1 concentration found, M ± SE (n = 9) [4, 12]: 0.1 ± 0.04 µg/mL | Calculated total SkQ1 amount in the vial (=total SkQ1 amount extracted from the lens), M ± SE (n = 9) [4, 13]: 2.5 µg and 2.5 ± 0.08 µg | SkQ1 concentration found, M ± SE (n = 9) [4, 13]: 9.9 ± 0.33 µg/mL | Time of maximum SkQ1 concentration in cornea (rabbit cornea [5]): 30 min | SkQ1 conc. in experimental lenses (rabbit eyes; 30 min on rabbit eye): 2.868 µg/mL and 3.006 µg/mL | Average SkQ1 amount in experimental lenses (rabbit eyes; 30 min on rabbit eye): 2.38 nmoles/sample | SkQ1 amount in experimental lenses (rabbit eyes; 30 min on rabbit eye): 2.324 nmoles/sample and 2.436 nmoles/sample | Amount of SkQ1 in the contact lens placed on the eye over time (rabbit eyes; 30 min to 6 hours, FIG. 1): decreased with time | SkQ1 conc. in experimental lenses (rabbit eyes; 1 hour on rabbit eye): 3.339 µg/mL and 3.200 µg/mL | Average SkQ1 amount in experimental lenses (rabbit eyes; 1 hour on rabbit eye): 2.65 nmoles/sample | SkQ1 amount in experimental lenses (rabbit eyes; 1 hour on rabbit eye): 2.706 nmoles/sample and 2.593 nmoles/sample | SkQ1 conc. in experimental lenses (rabbit eyes; 2 hours on rabbit eye): 2.77 µg/mL and 2.854 µg/mL | Average SkQ1 amount in experimental lenses (rabbit eyes; 2 hours on rabbit eye): 2.279 nmoles/sample | SkQ1 amount in experimental lenses (rabbit eyes; 2 hours on rabbit eye): 2.244 nmoles/sample and 2.313 nmoles/sample | SkQ1 conc. in experimental lenses (rabbit eyes; 6 hours on rabbit eye): 1.448 µg/mL and 1.229 µg/mL | Average SkQ1 amount in experimental lenses (rabbit eyes; 6 hours on rabbit eye): 1.114 nmoles/sample | SkQ1 amount in experimental lenses (rabbit eyes; 6 hours on rabbit eye): 1.174 nmoles/sample and 1.053 nmoles/sample | SkQ1 amount in control lenses ([6]; 30 min in saline): 4.611 nmoles/sample | SkQ1 conc. in control lenses ([6]; 30 min in saline): 5.690 µg/mL | SkQ1 concentration on intact control lenses left in saline over time ([6]; 30 min to 6 hours, FIG. 1): stayed stable | SkQ1 amount in control lenses ([6]; 1 hour in saline): 4.966 nmoles/sample | SkQ1 conc. in control lenses ([6]; 1 hour in saline): 6.129 µg/mL | SkQ1 amount in control lenses ([6]; 2 hours in saline): 5.107 nmoles/sample | SkQ1 conc. in control lenses ([6]; 2 hours in saline): 6.302 µg/mL | SkQ1 amount in control lenses ([6]; 6 hours in saline): 4.377 nmoles/sample | SkQ1 conc. in control lenses ([6]; 6 hours in saline): 5.052 µg/mL

CC1=C(C)C(=O)C(CCCCCCCCCC[P+](c2ccccc2)(c2ccccc2)c2ccccc2)=C(C)C1=O [SkQ3]
Concentration in PBS as % of the concentration in 50% ethanol [3]: 29.6%

COc1ccc2c(CC(=O)OCCCCCCCC3=CC(=O)C(C)=C(C)C3=O)c3[n+](cc2c1OC)CCc1cc2c(cc1-3)OCO2 [SkQB1]
Concentration in PBS as % of the concentration in 50% ethanol [3]: 63.8%
